System: 354836-022-R-J1-PDC multicell spheroid viability
Test: Anticancer human tumor 354836-022-R-J1-PDC patient-derived head and neck squamous cell carcinoma cell line growth inhibition [PI3K]
Conditions: for viability, T/C: stronger effect = lower value
Outline: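 Three cell types, namely tumor cells, endothelial cells and mesenchymal stem cells, formed each spheroid. Combinations with four PI3K inhibitors were screened at clinically achievable concentrations decreasing by half-log, and spheroid viability was recorded.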
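Also: spheroids exposed to agents for seven days before the viability read.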

**Q.** What does the source list for CCN1CCN(Cc2ccc(Nc3ncc(F)c(-c4cc(F)c5nc(C)n(C(C)C)c5c4)n3)nc2)CC1 + CC(Nc1ncnc2nc[nH]c12)c1cc2cccc(Cl)c2c(=O)n1-c1ccccc1?
**A.** IC50 (curve of first compound, second compound 0.0316 µM): 917 nM; IC50 (curve of first compound, second compound 0.1 µM): > 1000 nM; IC50 (curve of first compound, second compound 0.316 µM): > 1000 nM; IC50 (curve of first compound, second compound 1 µM): 954 nM; IC50 (curve of first compound, second compound 3.16 µM): 788 nM; IC50 (curve of first compound, second compound 10 µM): 643 nM; viability, T/C (second compound 0.0316 µM, first compound 0.00316 µM): 109%; viability, T/C (second compound 0.0316 µM, first compound 0.01 µM): 103%; viability, T/C (second compound 0.0316 µM, first compound 0.0316 µM): 97.6%; viability, T/C (second compound 0.0316 µM, first compound 0.1 µM): 96.7%; viability, T/C (second compound 0.0316 µM, first compound 0.316 µM): 81.7%; viability, T/C (second compound 0.0316 µM, first compound 1 µM): 47.3%; viability, T/C (second compound 0.1 µM, first compound 0.00316 µM): 106%; viability, T/C (second compound 0.1 µM, first compound 0.01 µM): 109%; viability, T/C (second compound 0.1 µM, first compound 0.0316 µM): 91.7%; viability, T/C (second compound 0.1 µM, first compound 0.1 µM): 103%; viability, T/C (second compound 0.1 µM, first compound 0.316 µM): 99.5%; viability, T/C (second compound 0.1 µM, first compound 1 µM): 61.2%; viability, T/C (second compound 0.316 µM, first compound 0.00316 µM): 103%; viability, T/C (second compound 0.316 µM, first compound 0.01 µM): 102%; viability, T/C (second compound 0.316 µM, first compound 0.0316 µM): 102%; viability, T/C (second compound 0.316 µM, first compound 0.1 µM): 104%; viability, T/C (second compound 0.316 µM, first compound 0.316 µM): 89.4%; viability, T/C (second compound 0.316 µM, first compound 1 µM): 58.1%; viability, T/C (second compound 1 µM, first compound 0.00316 µM): 119%; viability, T/C (second compound 1 µM, first compound 0.01 µM): 104%; viability, T/C (second compound 1 µM, first compound 0.0316 µM): 94.9%; viability, T/C (second compound 1 µM, first compound 0.1 µM): 109%; viability, T/C (second compound 1 µM, first compound 0.316 µM): 91.6%; viability, T/C (second compound 1 µM, first compound 1 µM): 47.8%; viability, T/C (second compound 3.16 µM, first compound 0.00316 µM): 97.9%; viability, T/C (second compound 3.16 µM, first compound 0.01 µM): 110%; viability, T/C (second compound 3.16 µM, first compound 0.0316 µM): 94.2%; viability, T/C (second compound 3.16 µM, first compound 0.1 µM): 100%; viability, T/C (second compound 3.16 µM, first compound 0.316 µM): 93.7%; viability, T/C (second compound 3.16 µM, first compound 1 µM): 38.5%; viability, T/C (second compound 10 µM, first compound 0.00316 µM): 92.5%; viability, T/C (second compound 10 µM, first compound 0.01 µM): 92.8%; viability, T/C (second compound 10 µM, first compound 0.0316 µM): 90.1%; viability, T/C (second compound 10 µM, first compound 0.1 µM): 86.4%; viability, T/C (second compound 10 µM, first compound 0.316 µM): 83.8%; viability, T/C (second compound 10 µM, first compound 1 µM): 29.6%

**Q.** For COc1c(OCCCN2CCOCC2)ccc2c3n(c(=NC(=O)c4cnc(N)nc4)nc12)CCN3, which viability, T/C (compound 0.00316 µM) is on record?
**A.** The viability, T/C was 106% [middle of 8 runs].

**Q.** And the viability, T/C (compound 0.01 µM)?
**A.** The viability, T/C was 97.6% [middle of 8 runs].

**Q.** What about the viability, T/C (compound 0.0316 µM) of the same compound?
**A.** The viability, T/C was 82.5% [middle of 8 runs].

**Q.** And the viability, T/C (compound 0.1 µM)?
**A.** Its viability, T/C is 50.2% [middle of 8 runs].

**Q.** What about the viability, T/C (compound 0.316 µM) of the same compound?
**A.** Its viability, T/C is 11.2% [middle of 8 runs].

**Q.** And the viability, T/C (compound 1 µM)?
**A.** Its viability, T/C is 1.63% [middle of 8 runs].

**Q.** And the IC50 (compound alone, run of 06/13/2023)?
**A.** Its IC50 is 91.2 nM [middle of 8 runs].

Reference: PubChem BioAssay AID1963981 (Molecular Pharmacology Branch, DTP, NCI, 2024)
